# Assay results: patent US9302999B2, “Substituted triazoles as herbicides” (E. I. DU PONT DE NEMOURS AND COMPANY, priority 2012, dated 2016)
# Columns and labels:
# [1] = test system: ragweed (common ragweed, Ambrosia elatior); experiment: Test F pre-/postemergence: ragweed; format: in vivo; conditions: Preemergence
# Excerpt: (§1) Seeds of plant species selected from corn (Zea mays), soybean (Glycine max), velvetleaf (Abutilon theophrasti), lambsquarters (Chenopodium album), poinsettia, wild (wild poinsettia, Euphorbia heterophylla), pigweed, palmer (palmer pigweed, Amaranthus palmeri), waterhemp (common waterhemp, Amaranthus rudis), surinam grass (Brachiaria decumbens), crabgrass, Brazil (Brazilian crabgrass, Digitaria horizontalis), panicum, fall (fall panicum Panicum dichotomiflorum), crabgrass, large (large crabgrass, Digitaria sanguinalis), foxtail, giant (giant foxtail, Setaria faberii), foxtail, green (green foxtail Setaria viridis), goosegrass (Eleusine indica), ragweed (common ragweed, Ambrosia elatior), barnyardgrass (Echinochloa crus-galli), sandbur (southern sandbur, Cenchrus echinatus), arrowleaf sida (Sida rhombifolia), ryegrass, Italian (Italian ryegrass, Lolium multiflorum), dayflower, VA (Virginia (VA) dayflower, Commelina virginica), field bindweed (Convolvulus arvensis), cocklebur (common cocklebur, Xanthium strumarium), morningglory (Ipomoea coccinea), nightshade (eastern black nightshade, Solanum ptycanthum), kochia (Kochia scoparia), nutsedge, yellow (yellow nutsedge, Cyperus esculentus), johnsongrass (Sorghum halepense), smartweed (ladysthumb smartweed, Polygonum persicaria), and beggarticks (hairy beggarticks, Bidens pilosa), were planted into a silt loam soil and treated preemergence with test chemicals formulated in a non-phytotoxic solvent mixture which included a surfactant. At the same time, plants selected from these crop and weed species and also pigweed (Amaranthus retroflexus), waterhemp_RES1 (ALS/Triazine resistant common waterhemp, Amaranthus rudis) and waterhemp_RES2 (ALS/HPPD resistant common waterhemp, Amaranthus rudis) were planted in pots containing a planting medium comprising spaghnum peat moss, vermiculite, wetting agent and starter nutrients treated with postemergence applications of some of the test chemicals formulated in the same manner. Plants ranged in height from 2 to 18 cm for postemergence treatments (1- to 4-leaf stage).
# (§2) Treated plants and controls were maintained in a greenhouse for 14 to 21 days, after which time all species were compared to controls and visually evaluated. Plant response ratings, summarized in Table E, are based on a scale of 0 to 100 where 0 is no effect and 100 is complete control. A dash (-) response means no test result.
# [2] = test system: field bindweed (Convolvulus arvensis); experiment: Test F pre-/postemergence: field bindweed; format: in vivo
# Excerpt: as §1, §2
# [3] = test system: nightshade (eastern black nightshade, Solanum ptycanthum); experiment: Test F pre-/postemergence: nightshade; format: in vivo; conditions: Preemergence
# Excerpt: as §1, §2
# [4] = test system: crabgrass, Brazil (Brazilian crabgrass, Digitaria horizontalis); experiment: Test E pre-/postemergence: crabgrass, Brazil; format: in vivo; conditions: scale 0 to 100
# Excerpt: (§3) Seeds of plant species selected from corn (Zea mays), soybean (Glycine max), velvetleaf (Abutilon theophrasti), lambsquarters (Chenopodium album), poinsettia, wild (wild poinsettia, Euphorbia heterophylla), pigweed, palmer (palmer pigweed, Amaranthus palmeri), waterhemp (common waterhemp, Amaranthus rudis), smartweed (ladysthumb smartweed, Polygonum persicaria), surinam grass (Brachiaria decumbens), crabgrass, large (large crabgrass, Digitaria sanguinalis), crabgrass, Brazil (Brazilian crabgrass, Digitaria horizontalis), panicum, fall (fall panicum, Panicum dichotomiflorum), foxtail, giant (giant foxtail, Setaria faberii), foxtail, green (green foxtail, Setaria viridis), goosegrass (Eleusine indica), johnsongrass (Sorghum halepense), ragweed (common ragweed, Ambrosia elation), barnyardgrass (Echinochloa crus-galli), sandbur (southern sandbur, Cenchrus echinatus), arrowleaf sida (Sida rhombifolia), ryegrass, Italian (Italian ryegrass, Lolium multiflorum), dayflower, (VA) (Virginia dayflower, Commelina virginica), field bindweed (Convolvulus arvensis), cocklebur (common cocklebur, Xanthium strumarium), morningglory (Ipomoea coccinea), nightshade (eastern black nightshade, Solanum ptycanthum), kochia (Kochia scoparia), nutsedge, yellow (yellow nutsedge, Cyperus esculentus) and beggarticks (hairy beggarticks, Bidens pilosa) were planted into a silt loam soil and treated preemergence with test chemicals formulated in a non-phytotoxic solvent mixture which included a surfactant. At the same time, plants selected from these crop and weed species were planted in pots containing a growing medium comprising spaghnum peat moss, vermiculite, wetting agent and starter nutrients and treated with postemergence applications of some of the test chemicals formulated in the same manner. Plants ranged in height from 2 to 18 cm for postemergence treatments (1- to 4-leaf stage).
# as §2
# [5] = test system: ryegrass, Italian (Italian ryegrass, Lolium multiflorum); experiment: Test E pre-/postemergence: ryegrass, Italian; format: in vivo; conditions: scale 0 to 100
# Excerpt: as §3, §2
# [6] = test system: Barnyardgrass; experiment: Test C postemergence: barnyardgrass; format: in vivo, Echinochloa crus-galli; conditions: 125 g ai/ha, scale 0 to 100, 0 no effect, 100 complete control
# Excerpt: Seeds of plant species selected from blackgrass (Alopecurus myosuroides), bromegrass, downy (downy bromegrass, Bromus tectorum), foxtail, green (green foxtail, Setaria viridis), ryegrass, Italian (Italian ryegrass, Lolium multiflorum), winter wheat (Triticum aestivum), wild oat (Avena fatua), galium (catchweed bedstraw, Galium aparine), bermudagrass (Cynodon dactylon), surinam grass (Brachiaria decumbens), cocklebur (common cocklebur, Xanthium strumarium), corn (Zea mays), large crabgrass (Digitaria sanguinalis), woolly cupgrass (Eriochloa villosa), foxtail, giant (giant foxtail, Setaria faberii), goosegrass (Eleusine indica), johnsongrass (Sorghum halepense), kochia (Kochia scoparia), lambsquarters (Chenopodium album), morningglory (Ipomoea coccinea), nightshade (eastern black nightshade, Solanum ptycanthum), nutsedge, yellow (yellow nutsedge, Cyperus esculentus), pigweed (Amaranthus retroflexus), ragweed (common ragweed, Ambrosia elation), soybean (Glycine max), common (oilseed) sunflower (Helianthus annuus), Russian thistle (Salsola kali) and velvetleaf (Abutilon theophrasti) were planted into a blend of loam soil and sand and treated preemergence with test chemicals formulated in a non-phytotoxic solvent mixture which included a surfactant.
# At the same time, plants selected from these crop and weed species and also barley (winter barley, Hordeum vulgare), canarygrass (Phalaris minor), chickweed (common chickweed, Stellaria media) windgrass (Apera spica-venti) and deadnettle (henbit deadnettle, Lamium amplexicaule) were planted in pots containing Redi-Earth® planting medium (Scotts Company, 14111 Scottslawn Road, Marysville, Ohio 43041) comprising spaghnum peat moss, vermiculite, wetting agent and starter nutrients and treated with postemergence applications of test chemicals formulated in the same manner. Plants ranged in height from 2 to 18 cm (1- to 4-leaf stage) for postemergence treatments.
# Treated plants and controls were maintained in a greenhouse for 13 to 15 days, after which time all species were compared to controls and visually evaluated. Plant response ratings, summarized in Table C, are based on a scale of 0 to 100 where 0 is no effect and 100 is complete control. A dash (-) response means no test result.
# [7] = 16 g ai/ha, scale 0 to 100 (0 no effect, 100 complete control)
# [8] = 31 g ai/ha, scale 0 to 100 (0 no effect, 100 complete control)
# [9] = Preemergence, 16 g ai/ha, scale 0 to 100 (0 no effect, 100 complete control)
# [10] = Preemergence, 31 g ai/ha, scale 0 to 100 (0 no effect, 100 complete control)
# [11] = Preemergence, 62 g ai/ha, scale 0 to 100
# [12] = 4 g ai/ha, scale 0 to 100, 0 no effect, 100 complete control
# [13] = 8 g ai/ha, scale 0 to 100, 0 no effect, 100 complete control
# [14] = Postemergence, 8 g ai/ha, scale 0 to 100
# [15] = Postemergence, 16 g ai/ha, scale 0 to 100
# [16] = Postemergence, 62 g ai/ha, scale 0 to 100
compound,measurement,setting,value
Fc1ccc(-n2nc(Cc3ccnc(C(F)(F)F)c3)c(OCC(F)(F)F)n2)cc1 [Compound 142],"Plant response rating, Ragweed",[1]; [7],0
same,"Plant response rating, Ragweed",[1]; [8],0
same,"Plant response rating, Ragweed","[1]; 125 g ai/ha, scale 0 to 100",40
same,"Plant response rating, Field Bindweed",[2]; [9],20
same,"Plant response rating, Field Bindweed",[2]; [10],50
same,"Plant response rating, Field Bindweed",[2]; [11],75
same,"Plant response rating, Field Bindweed","[2]; Preemergence, 125 g ai/ha, scale 0 to 100",98
same,"Plant response rating, Nightshade",[3]; [7],65
same,"Plant response rating, Nightshade",[3]; [8],80
same,"Plant response rating, Nightshade","[3]; 125 g ai/ha, scale 0 to 100",98
"Cc1nn(-c2ccc(F)cc2)nc1Cc1ccnc(C(F)(F)F)c1 [Compound 16, 4-[[2-(4-fluorophenyl)-5-methyl-2H-1,2,3-triazol-4-yl]methyl]-2-(trifluoromethyl)pyridine]","Plant response rating: Crabgrass, Brazil","[4]; Preemergence, 8 g ai/ha",30
same,"Plant response rating: Crabgrass, Brazil","[4]; Preemergence, 16 g ai/ha",70
same,"Plant response rating: Crabgrass, Brazil","[4]; Preemergence, 31 g ai/ha",95
same,"Plant response rating: Crabgrass, Brazil","[4]; Preemergence, 62 g ai/ha",100
same,"Plant response rating: Crabgrass, Brazil","[4]; Preemergence, 125 g ai/ha",100
same,"Plant response rating: Ryegrass, Italian","[5]; Preemergence, 8 g ai/ha",0
same,"Plant response rating: Ryegrass, Italian","[5]; Preemergence, 16 g ai/ha",0
same,"Plant response rating: Ryegrass, Italian","[5]; Preemergence, 31 g ai/ha",30
same,"Plant response rating: Ryegrass, Italian","[5]; Preemergence, 62 g ai/ha",50
same,"Plant response rating: Ryegrass, Italian","[5]; Preemergence, 125 g ai/ha",98
Cc1nn(-c2ccc(C(F)(F)F)c(F)c2)nc1Cc1ccnc(C(F)(F)F)c1 [Compound 162],"Plant response rating, Ragweed",[1]; [12],0
same,"Plant response rating, Ragweed",[1]; [13],0
same,"Plant response rating, Ragweed",[1]; [7],0
same,"Plant response rating, Ragweed",[1]; [8],70
same,"Plant response rating, Field Bindweed","[2]; Postemergence, 4 g ai/ha, scale 0 to 100",20
same,"Plant response rating, Field Bindweed",[2]; [14],20
same,"Plant response rating, Field Bindweed",[2]; [15],20
same,"Plant response rating, Field Bindweed","[2]; Postemergence, 31 g ai/ha, scale 0 to 100",30
same,"Plant response rating, Field Bindweed",[2]; [16],50
same,"Plant response rating, Field Bindweed","[2]; Preemergence, 4 g ai/ha, scale 0 to 100, 0 no effect, 100 complete control",0
same,"Plant response rating, Field Bindweed","[2]; Preemergence, 8 g ai/ha, scale 0 to 100, 0 no effect, 100 complete control",0
same,"Plant response rating, Field Bindweed",[2]; [9],5
same,"Plant response rating, Field Bindweed",[2]; [10],5
same,"Plant response rating, Field Bindweed",[2]; [11],5
same,"Plant response rating, Nightshade",[3]; [12],0
same,"Plant response rating, Nightshade",[3]; [13],0
same,"Plant response rating, Nightshade",[3]; [7],5
same,"Plant response rating, Barnyardgrass",[6],90
CCc1nn(-c2ccc(F)cc2)nc1Oc1ccnc(C(F)(F)F)c1 [Compound 166],"Plant response rating, Barnyardgrass",[6],45
"Cc1nn(-c2ccc(F)cc2)nc1Oc1ccnc(C(F)(F)F)c1 [Compound 129, 4-[[2-(4-fluorophenyl)-5-methyl-2H-1,2,3-triazol-4-yl]oxy]-2-(trifluoromethyl)pyridine]","Plant response rating: Crabgrass, Brazil","[4]; Preemergence, 8 g ai/ha",10
same,"Plant response rating: Crabgrass, Brazil","[4]; Preemergence, 16 g ai/ha",15
same,"Plant response rating: Crabgrass, Brazil","[4]; Preemergence, 31 g ai/ha",60
same,"Plant response rating: Crabgrass, Brazil","[4]; Preemergence, 62 g ai/ha",95
same,"Plant response rating: Crabgrass, Brazil","[4]; Preemergence, 125 g ai/ha",100
same,"Plant response rating: Ryegrass, Italian","[5]; Preemergence, 8 g ai/ha",0
same,"Plant response rating: Ryegrass, Italian","[5]; Preemergence, 16 g ai/ha",25
same,"Plant response rating: Ryegrass, Italian","[5]; Preemergence, 31 g ai/ha",25
same,"Plant response rating: Ryegrass, Italian","[5]; Preemergence, 62 g ai/ha",40
same,"Plant response rating: Ryegrass, Italian","[5]; Preemergence, 125 g ai/ha",60
CCCc1nn(-c2ccc(C(F)(F)F)c(F)c2)nc1Oc1ccnc(C(F)(F)F)c1 [Compound 185],"Plant response rating, Barnyardgrass",[6],70
"Cc1nn(-c2ccc(C(F)(F)F)cc2)nc1Cc1ccnc(C(F)(F)F)c1 [Compound 47, 4-[[5-methyl-2-[4-(trifluoromethyl)phenyl]-2H-1,2,3-triazol-4-yl]methyl]-2-(trifluoromethyl)pyridine]","Plant response rating: Crabgrass, Brazil","[4]; Postemergence, 250 g ai/ha",50
same,"Plant response rating: Crabgrass, Brazil","[4]; Postemergence, 16 g ai/ha",20
same,"Plant response rating: Crabgrass, Brazil","[4]; Postemergence, 31 g ai/ha",30
same,"Plant response rating: Crabgrass, Brazil","[4]; Postemergence, 62 g ai/ha",40
same,"Plant response rating: Crabgrass, Brazil","[4]; Postemergence, 125 g ai/ha",40
same,"Plant response rating: Crabgrass, Brazil","[4]; Preemergence, 16 g ai/ha",35
same,"Plant response rating: Crabgrass, Brazil","[4]; Preemergence, 31 g ai/ha",80
same,"Plant response rating: Crabgrass, Brazil","[4]; Preemergence, 62 g ai/ha",100
same,"Plant response rating: Crabgrass, Brazil","[4]; Preemergence, 125 g ai/ha",100
same,"Plant response rating: Crabgrass, Brazil","[4]; Preemergence, 250 g ai/ha",100
same,"Plant response rating: Ryegrass, Italian","[5]; Postemergence, 250 g ai/ha",80
same,"Plant response rating: Ryegrass, Italian","[5]; Postemergence, 16 g ai/ha",10
same,"Plant response rating: Ryegrass, Italian","[5]; Postemergence, 31 g ai/ha",20
same,"Plant response rating: Ryegrass, Italian","[5]; Postemergence, 62 g ai/ha",30
same,"Plant response rating: Ryegrass, Italian","[5]; Postemergence, 125 g ai/ha",50
same,"Plant response rating: Ryegrass, Italian","[5]; Preemergence, 16 g ai/ha",20
same,"Plant response rating: Ryegrass, Italian","[5]; Preemergence, 31 g ai/ha",40
same,"Plant response rating: Ryegrass, Italian","[5]; Preemergence, 62 g ai/ha",70
same,"Plant response rating: Ryegrass, Italian","[5]; Preemergence, 125 g ai/ha",100
same,"Plant response rating: Ryegrass, Italian","[5]; Preemergence, 250 g ai/ha",100
Cc1nn(-c2ccc(F)c(F)c2)nc1Oc1ccnc(C(F)(F)F)c1 [Compound 145],"Plant response rating, Field Bindweed",[2]; [14],50
same,"Plant response rating, Field Bindweed",[2]; [15],60
same,"Plant response rating, Field Bindweed",[2]; [16],70
same,"Plant response rating, Field Bindweed","[2]; Postemergence, 125 g ai/ha, scale 0 to 100",75
